Key:
Assay type in all cases: biochemical
[1] = target: T1, PTP-1B (Homo sapiens, UniProt P18031); experiment: In vitro PTPase inhibition assay (pNPP, colorimetric), PTP-1B; details: Table 8; 1 μM compound
T1 construct: known to encode a 321 amino acid fragment containing the PTP-1B catalytic domain and having PTPase activity; made in house; host or cells: E. coli DH5α, plasmid pGEX-3X-PTP-1B
T1 sequence (P18031 3-277 limits assumed): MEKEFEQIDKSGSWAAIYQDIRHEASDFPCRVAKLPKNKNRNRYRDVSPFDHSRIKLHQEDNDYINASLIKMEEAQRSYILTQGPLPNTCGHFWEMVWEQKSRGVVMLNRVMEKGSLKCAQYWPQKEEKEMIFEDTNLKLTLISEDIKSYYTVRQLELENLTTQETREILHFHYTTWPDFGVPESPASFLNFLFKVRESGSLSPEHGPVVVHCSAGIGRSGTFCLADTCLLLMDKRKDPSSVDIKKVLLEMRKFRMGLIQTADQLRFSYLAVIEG

[2] = target: PTPα (Homo sapiens, UniProt P18433); experiment: In vitro PTPase inhibition assay (pNPP, colorimetric), PTPα; details: Table 8; 100 μM compound
Method: (§1) The ability of the compounds of the present invention, such as the cinnamic 4 acid derivative compounds of Example 2, to inhibit the PTPase activity of PTP-1B, CD45, PTP-1C, and PTPα was determined using modifications of the PTP-1B and CD45 activity assays described in Examples 3 and 4.
(§2) First, 0.001 mmol of the cinnamic acid derivative (or other PTPase inhibitor compound) was dissolved in 100 ul of DMSO to create a 10 mM stock solution. The 10 mM stock solution was used to add varying concentrations (100 uM, 133 uM, 10 uM, 3 uM, 1 uM, 0.3 uM, 0.1 uM, 0.03 uM, 0.01 uM or 0.003 uM) of the inhibitor compound to a series of otherwise identical PTPase activity assay reactions (100 ul final volume in microtiter wells). Thus, each 100 ul reaction contained 10 ul PTPase enzyme stock solution (final phosphatase concentration of approximately 20 ng/well), 70 ul activity assay buffer, 10 ul pNPP stock solution (final pNPP concentration of 0.9 mM for PTP-1B assay, 0.93 mM for CD45 assay, 0.5 mM for PTPα assay, and 8 mM for PTP-1C assay), and 10 ul of the diluted inhibitor compound in DMSO. Assay buffers contained: for CD45 and PTP-1B assays, 100 mM sodium acetate at pH 6.0, 1 mM EDTA, 0.1% Triton X-100, and 15 mM bME; for PTP-1C assays, 100 mM sodium acetate at pH 5.5, 0.1% BSA, and 15 mM bME; for PTPα assays, 100 mM sodium acetate at pH 5.25, 0.1% BSA, and 15 mM bME. Purified phosphatase was added to the reaction mixtures to begin the reactions; the reactions were incubated at 37° C. for 60 min. (for PTP-1B and CD45 assays) or at 27° C. for 60 min. (for PTP-1C and PTPα assays), stopped, and colorimetrically analyzed as described above. As positive and negative controls, reactions were performed containing 10 ul DMSO with no inhibitor compound or containing the known PTPase inhibitors vanadate (final concentration 0.5 mM; for PTP-1B and CD45 assays) or ammonium molybdate (final concentration 1 mM; for PTP-1C and PTPα assays) substituted for the inhibitor compound of the invention.
(§3) The concentration of inhibitor compound required to inhibit 50% of the PTPase activity (IC50) was determined as follows. First, absorbance readings from the negative control reactions were treated as a baseline and subtracted from the absorbance readings of the experimental reactions. Then, for each reaction, a percent inhibition was calculated using the following formula: […]
(§4) The ability of the compounds of the present invention, such as the cinnamic acid derivative compounds of Example 2, to inhibit the PTPase activity of PTP-1B, CD45, PTP-1C, and PTPα was determined using modifications of the PTP-1B and CD45 activity assays described in Examples 3 and 4.
as §2, with “uM, 33” for “uM, 133”, “EDTA, 0. 1%” for “EDTA, 0.1%”, “at 27 C” for “at 27° C.”, “min.” for “min. (for PTP-1C and PTPα assays), stopped, and colorimetrically analyzed as described above. As positive and negative controls, reactions were performed containing 10 ul DMSO with no inhibitor compound or containing the known PTPase inhibitors vanadate (final concentration 0.5 mM; for PTP-1B and CD45 assays) or ammonium molybdate (final concentration 1 mM; for PTP-1C and PTPα assays) substituted for the inhibitor compound of the invention.”

[3] = target: PTP-1C (Homo sapiens, UniProt P29350); experiment: In vitro PTPase inhibition assay (pNPP, colorimetric), PTP-1C; details: Table 8; 100 μM compound
Method: as §1, §2, §3, §4
as §2, with “uM, 33” for “uM, 133”, “EDTA, 0. 1%” for “EDTA, 0.1%”, “at 27 C” for “at 27° C.”, “min.” for “min. (for PTP-1C and PTPα assays), stopped, and colorimetrically analyzed as described above. As positive and negative controls, reactions were performed containing 10 ul DMSO with no inhibitor compound or containing the known PTPase inhibitors vanadate (final concentration 0.5 mM; for PTP-1B and CD45 assays) or ammonium molybdate (final concentration 1 mM; for PTP-1C and PTPα assays) substituted for the inhibitor compound of the invention.”

Chain of PTP-1C (P29350 whole entry, species assumed): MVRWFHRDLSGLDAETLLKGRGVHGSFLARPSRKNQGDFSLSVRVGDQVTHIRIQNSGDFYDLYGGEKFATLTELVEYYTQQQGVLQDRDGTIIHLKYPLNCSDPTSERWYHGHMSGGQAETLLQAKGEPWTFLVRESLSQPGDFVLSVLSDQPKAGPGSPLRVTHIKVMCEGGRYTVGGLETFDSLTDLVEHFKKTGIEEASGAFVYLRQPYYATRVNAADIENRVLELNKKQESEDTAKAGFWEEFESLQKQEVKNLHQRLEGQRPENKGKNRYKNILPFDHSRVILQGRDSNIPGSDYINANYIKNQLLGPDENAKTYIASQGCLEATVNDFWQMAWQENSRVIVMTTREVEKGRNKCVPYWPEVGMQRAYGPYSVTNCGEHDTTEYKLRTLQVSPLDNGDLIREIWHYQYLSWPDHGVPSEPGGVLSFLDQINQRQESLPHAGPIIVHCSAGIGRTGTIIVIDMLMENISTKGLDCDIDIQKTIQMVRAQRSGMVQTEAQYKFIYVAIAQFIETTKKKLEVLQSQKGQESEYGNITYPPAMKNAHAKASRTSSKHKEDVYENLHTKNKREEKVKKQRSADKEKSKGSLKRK
Chain of PTPα (P18433 20-802): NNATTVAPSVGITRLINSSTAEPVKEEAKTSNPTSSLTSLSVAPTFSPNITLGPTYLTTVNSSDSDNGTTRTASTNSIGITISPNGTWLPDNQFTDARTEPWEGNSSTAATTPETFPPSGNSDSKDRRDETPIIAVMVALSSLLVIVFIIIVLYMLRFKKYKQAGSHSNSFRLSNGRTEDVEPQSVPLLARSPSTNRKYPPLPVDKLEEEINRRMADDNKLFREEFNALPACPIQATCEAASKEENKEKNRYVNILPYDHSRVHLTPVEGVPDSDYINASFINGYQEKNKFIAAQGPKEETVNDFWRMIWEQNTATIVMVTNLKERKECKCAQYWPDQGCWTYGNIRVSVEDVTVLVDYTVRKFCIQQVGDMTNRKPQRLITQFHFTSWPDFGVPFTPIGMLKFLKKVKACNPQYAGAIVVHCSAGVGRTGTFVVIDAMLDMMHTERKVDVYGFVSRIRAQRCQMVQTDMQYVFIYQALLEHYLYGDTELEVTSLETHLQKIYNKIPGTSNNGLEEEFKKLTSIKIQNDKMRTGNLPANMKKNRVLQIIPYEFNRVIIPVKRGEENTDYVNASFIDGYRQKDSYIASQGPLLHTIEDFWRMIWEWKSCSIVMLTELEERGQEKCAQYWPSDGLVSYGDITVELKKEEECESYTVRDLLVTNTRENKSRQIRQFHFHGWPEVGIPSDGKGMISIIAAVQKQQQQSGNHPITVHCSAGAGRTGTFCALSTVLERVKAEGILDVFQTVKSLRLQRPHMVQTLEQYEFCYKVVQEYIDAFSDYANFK

Structure (SMILES) | % inhibition of PTP1B at 1 μM [1] | % inhibition of PTPα at 100 μM [2] | % inhibition of PTP1C at 100 μM [3]
O=C(O)/C=C/c1ccc(C(OC(=O)CCC2CCCC2)C(=O)NCCCCCC(=O)O)cc1 (racemic) [Compound 50] | 50% | 37% | 25%
COc1ccc(C(=O)OC(C(=O)NCCC(=O)O)c2ccc(/C=C/C(=O)O)cc2)cc1 (racemic) [Compound 42] | 84% | 92% | 88%
CCCCCCC(OC(=O)c1ccc(/C=C/C(=O)O)cc1)C(=O)NCCC(=O)O (racemic) [Compound 38] | 93% | 71% | 63%
CCCC(CCC)C(=O)OC(C(=O)NCCC(=O)O)c1ccc(/C=C/C(=O)O)cc1 (racemic) [Compound 47] | 68% | 48% | 63%
CCCCCCCCCC(OC(=O)c1ccc(/C=C/C(=O)O)cc1)C(=O)NCCC(=O)O (racemic) [Compound 40] | 88% | 82% | 62%
O=C(O)/C=C/c1ccc(C(OC(=O)/C=C/c2ccc(F)cc2)C(=O)NCCCCCC(=O)O)cc1 (racemic) [Compound 46] | 75% | 73% | 61%
O=C(O)/C=C/c1ccc(C(OC(=O)CCC2CCCC2)C(=O)NCCC(=O)O)cc1 (racemic) [Compound 49] | 37% | 0% | 35%
CCCCCCCCCC(OC(=O)c1ccc(/C=C/C(=O)O)cc1)C(=O)NCCCCCC(=O)O (racemic) [Compound 41] | 39% | 20% | 17%
O=C(O)/C=C/c1ccc(C(OC(=O)/C=C/c2ccc(F)cc2)C(=O)NCCC(=O)O)cc1 (racemic) [Compound 45] | 85% | 85% | 84%
CCCC(CCC)C(=O)OC(C(=O)NCCCCCC(=O)O)c1ccc(/C=C/C(=O)O)cc1 (racemic) [Compound 48] | 69% | 3% | 33%
COc1ccc(C(=O)OC(C(=O)NCCCCCC(=O)O)c2ccc(/C=C/C(=O)O)cc2)cc1 (racemic) [Compound 43] | 76% | 82% | 79%
CCCCCCC(OC(=O)c1ccc(/C=C/C(=O)O)cc1)C(=O)NCCCCCC(=O)O (racemic) [Compound 39] | 82% | 47% | 53%
O=C(O)/C=C/c1ccc(C(=O)OC(C(=O)NCCC(=O)O)c2ccc(Br)cc2)cc1 (racemic) [Compound 36] | 52% | 0% | 42%
O=C(O)/C=C/c1ccc(C(OC(=O)c2ccc([N+](=O)[O-])cc2)C(=O)NCCC(=O)O)cc1 (racemic) [Compound 44] | 79% | 87% | 86%
O=C(O)/C=C/c1ccc(C(=O)OC(C(=O)NCCCCCC(=O)O)c2ccc(Br)cc2)cc1 (racemic) [Compound 37] | 85% | 63% | 59%

Source: US20020183518A1, “Modulators of proteins with phosphotyrosine recognition units” (ONTOGEN CORPORATION, priority 1995, published 2002)
